The structures appear in SMILES notation.

This assay has as its target HDM2 (MDM2) (Homo sapiens, UniProt Q00987). Put plainly: HTR-FRET competition assay of biotin-p53 / GST-HDM2 binding.

HDM2 (MDM2), sequence (Q00987 whole entry): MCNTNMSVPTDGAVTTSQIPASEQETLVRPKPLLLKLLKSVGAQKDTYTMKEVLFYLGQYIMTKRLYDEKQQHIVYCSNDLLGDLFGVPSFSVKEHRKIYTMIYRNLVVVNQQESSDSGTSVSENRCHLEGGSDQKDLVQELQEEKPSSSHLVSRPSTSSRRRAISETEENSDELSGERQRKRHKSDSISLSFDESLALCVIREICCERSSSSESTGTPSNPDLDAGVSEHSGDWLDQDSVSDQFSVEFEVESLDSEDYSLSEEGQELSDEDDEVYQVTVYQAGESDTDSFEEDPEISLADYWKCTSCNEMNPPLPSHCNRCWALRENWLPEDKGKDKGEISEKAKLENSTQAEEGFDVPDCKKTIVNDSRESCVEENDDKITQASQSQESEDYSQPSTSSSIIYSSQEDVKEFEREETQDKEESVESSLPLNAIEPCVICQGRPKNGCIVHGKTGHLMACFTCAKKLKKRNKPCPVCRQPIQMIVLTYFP

Regarding `CCC[C@@H](C)[C@H](O)[C@H](C)[C@@H](O)[C@@H](C)[C@H](Cc1nc(C2=N[C@@](C)(C3=N[C@@](C)(C(=O)N[C@H]([C@@H](O)[C@@H](C)C(=O)O)[C@@H](C)CC)CS3)CS2)cs1)OC` [compound 1, hoiamide D], the IC50 was found to be 4.5 µM.

As a reminder, the IC50 is the midpoint of a concentration-inhibition curve. Read a high IC50 as lower potency.

The values above are taken from article PMC3248991 (2011).
